Assay results as given in ChEMBL document CHEMBL5120777, “Incorporating Selenium into Heterocycles and Natural Products─From Chemical Properties to Pharmacological Activities” (J Med Chem, 2022).

Tests used:
Type in all cases: functional, cell-based
[1] = test system: T47D; assay: Antiproliferative activity against human T47D cells assessed as inhibition of cell growth incubated for 72 hrs by MTT assay
[2] = test system: SK-OV-3; assay: Antiproliferative activity against human SK-OV-3 cells assessed as inhibition of cell growth incubated for 72 hrs by MTT assay; conditions: SK-OV-3, 72 h
[3] = test system: PC-3; assay: Antiproliferative activity against human PC-3 cells assessed as inhibition of cell growth incubated for 72 hrs by MTT assay; conditions: PC-3, 72 h

IC50 [1]: 34.7 µM
IC50 [2]: 51.5 µM
IC50 [3]: 37.6 µM
Structure (SMILES): CC(=O)O[C@H]1CC[C@@]2(C)C(=CC[C@@H]3[C@@H]2CC[C@]2(C)C(c4cccnc4)=CC[C@@H]32)C1 [ABIRATERONE ACETATE]
